Test: passive permeability, PAMPA, ADME assay (AID 1508612)
Settings: pH 7.4, 30.0 min, 50.0 µM

SMILES	Papp [×10⁻⁶ cm/s]
C[C@@H]1CN(CC(=O)N2CC(C)(C)c3ncc(Cc4ccc(F)cc4)cc32)[C@@H](CN2CCOC[C@H]2C)CN1	> 1000
Cc1cc2c(-c3cccc(O)c3)nc(-c3c(C)noc3C)cc2[nH]1	> 1000
Cc1ccc(-c2ccnc(N3CCC(C(N)=O)CC3)n2)cc1	577
Cc1ccc(S(=O)(=O)Nc2ccc(C)cc2C(=O)Nc2nc(-c3ccccc3)cs2)cc1	< 1
O=c1[nH]c(N2CCOCC2)nc2c1CCN(Cc1ccc(Cl)cc1F)CC2	> 1000
COc1ccc(CNc2ccc(S(=O)(=O)Nc3nccs3)cc2)c(O)c1	< 1
Cc1ccc(S(=O)(=O)Nc2ccc(Br)cc2C(=O)Nc2nc(-c3ccccc3)cs2)cc1	2.4
O=C(c1cnc(N2CCCCC2)c2ccccc12)N1CCN(c2ccccn2)CC1	> 1000
COc1ccccc1-c1[nH]nc2ncc(-c3ccc(C)cc3)nc12	76.2
CCC(CC)c1cc([C@H]2CN3CC[C@H]2C[C@@H]3CNC(=O)COc2ccccc2)nc(-c2ccncc2)n1	790
COc1ccccc1S(=O)(=O)Nc1cnccc1C(=O)Nc1nc(-c2ccccc2)cs1	387
Cc1ccc(-n2nc3c(=O)n(CCCC(=O)NCc4ccccc4F)nc(C)c3c2C)cc1	920
C[C@H]1CCC[C@H](O)CCC/C=C/c2cc(O)cc(O)c2C(=O)O1	864
Cc1ccc(/C=C/c2nc3ccccc3n2S(=O)(=O)c2cccc(Cl)c2)cc1	11.5
Cc1cc(C)nc(NC(=S)N2CCN(c3ccncc3)CC2)c1	450
O=S(=O)(Nc1nccs1)c1ccc(NCc2ccccc2)cc1	320
Cc1ccc(S(=O)(=O)Nc2ccccc2C(=O)Nc2nc(-c3ccc(Cl)cc3)cs2)cc1	16.6
COc1cccc2nc(-c3cccs3)nc(NN3C(=O)C=C(C)C3=O)c12	353
N#Cc1cccc(-c2csc(N3CCC(C(N)=O)CC3)n2)c1	450
Cc1ccc(S(=O)(=O)Nc2cnccc2C(=O)Nc2ccc(-c3nc4ccccc4[nH]3)cc2)cc1	2.2
O=C1CCCC2=C1C(c1[nH]ncc1Cl)N=C(Nc1nc3cc(F)ccc3o1)N2 (configuration not stated)	647
Oc1cccc2nc3ccccc3nc12	513

SMILES	Papp [×10⁻⁶ cm/s]
COc1ccc(CCNC(=O)Cn2c(=O)c3cccn3c3ccc(F)cc32)cc1OC	442
Oc1ccc(Nc2nc(-c3ccncc3)nc3ccccc23)cc1F	664
COc1ncc(-c2ccc3c(Nc4cc(Oc5cc(F)cc(F)c5)cc(C(=O)O)c4)c(S(=O)(=O)NC4CC4)cnc3c2)c(OC)n1	< 1
CC(C)Oc1ccc(-c2ccc(=O)n(CC(=O)NCCc3ccccc3)n2)cc1	> 1000
Cc1ccc(-n2ncc3c(NCCCN(C)C)ncnc32)cc1Cl	> 1000
CCOc1ccc(CN2C(=O)c3ccccc3Sc3ccc(C(=O)NC4CCC(C)CC4)cc32)cc1 (configuration not stated)	< 1
Fc1cc(Nc2nc(-c3ccncc3)nc3ccccc23)ccc1-c1cn[nH]c1	36.1
O=C(O)c1ccncc1Nc1nn(CCN2CCC(F)(F)CC2)c2ccc(F)cc12	1.2
COc1ccc(C(=O)Nc2nc(-c3ccccc3)cs2)cc1NS(=O)(=O)c1ccc(C)cc1	14.9
CCn1nnnc1Sc1ncnc2scc(-c3ccc(C)cc3)c12	> 1000
S=C(NCCCc1cnc[nH]1)NCCCN(Cc1ccc(Cl)c(Cl)c1)c1ccc(Br)cn1	14
NC(=O)N1CCN(c2nc(-c3ccc(Br)cc3)cs2)CC1	958
COc1cc(OC)c2c(=O)[nH]c(-c3cc(C)c(OCCO)c(C)c3)nc2c1	540
O=C(Nc1ncnc2sc3c(c12)CCC3)c1ccco1	369
O=C(CCCCn1c(=O)[nH]c2ccsc2c1=O)N1CCN(c2cccc(Cl)c2)CC1	855
Nc1c(C(=O)Nc2ccc(Cl)cc2)sc2nc3c(cc12)N1CCC3CC1	697
Cc1ccc(NC(=O)c2cc(-c3ccc(C)o3)nc3ccccc23)nc1	> 1000
Cc1cccc2c(C(=O)O)cc(-c3cccs3)nc12	18.8
O=c1c2ccccc2nc(/C=C/c2cccnc2)n1Cc1ccccc1	> 1000
Cc1c(-c2nsc(NC(=O)c3cccc(Cl)c3)n2)nnn1-c1ccccc1C(F)(F)F	706
COc1ccc(S(=O)(=O)Nc2cnccc2C(=O)Nc2nc(-c3ccccc3)cs2)cc1	675
CCCCCn1c(=O)[nH]c2cc(C(=O)NCCCN3CCCCC3)ccc2c1=O	27.5

SMILES	Papp [×10⁻⁶ cm/s]
O=C(Nc1cn[nH]c1-c1nc2ccc(CN3CCOCC3)cc2[nH]1)NC1CC1	5.07
CC1CCC(NC(=O)c2ccc3c(c2)N(Cc2ccccc2F)C(=O)c2ccccc2S3)CC1 (configuration not stated)	2.7
COc1cc(/C=C(\C#N)C(=O)c2ccc(O)c(O)c2)cc(I)c1O	< 1
Cn1ccc2c(C(=O)NCC3CCC(=O)N3)nc(-c3ccccc3C#N)cc21 (configuration not stated)	265
COc1cccc(-c2noc(Nc3ccc4c(c3)OCCO4)n2)c1	202
Cc1ccc(-c2cc(C(=O)Nc3cccc(S(N)(=O)=O)c3)c3ccccc3n2)cc1C	11.8
O=C(Nc1nc(-c2ccccc2)cs1)c1ccncc1NS(=O)(=O)c1cccc(Cl)c1	754
Cc1ccc(-c2cc(C(=O)Nc3ncco3)c3ccccc3n2)cc1C	798
Cc1ccc(S(=O)(=O)Nc2cnccc2C(=O)Nc2nc(-c3ccco3)cs2)cc1	297
CC(=O)c1cccc(-c2csc(N3CCC(C(N)=O)CC3)n2)c1	328
O=C1Nc2ccccc2/C1=C\c1ccc(O)c(F)c1	343
CCCN1C(CC(C)C)=NS(=O)(=O)c2cc(NC(=O)c3ccco3)ccc21	427
Nc1nc2c(s1)C(c1cccc(F)c1F)CC(=O)N2 (configuration not stated)	9.86
Cc1cc(C)c(C(=O)Nc2cccc([S+](=O)([O-])N3CCCCCC3)c2)[nH]1	990
COc1ccc(N(C)C(=O)c2cc3c(s2)-c2ccccc2OC3)cc1	822
CCn1c(=O)cc(OCC(=O)N2CCN(c3cccc(Cl)c3)CC2)c2ccccc21	941
O=[S+]([O-])(Nc1ccc(N2CCNCC2)cc1)c1ccc(NCc2ccc(Cl)cc2O)cc1	6.78
Cc1ccc(S(=O)(=O)Nc2ncccc2C(=O)Nc2nc(-c3ccccc3)cs2)cc1	814
Fc1ccc(Nc2nc(-c3ccnc4ccccc34)nc3ccccc23)cc1F	202
O=C(c1nc(-c2ccc(Cl)cc2Cl)c2cnccn12)N1CCOCC1	> 1000
Cc1ccc(S(=O)(=O)NCCC(=O)Nc2nc(-c3ccccc3)cs2)cc1	861
Cc1cnc(-c2ccccc2C(F)F)nc1NCC1CN(c2cnccn2)C1	> 1000

SMILES	Papp [×10⁻⁶ cm/s]
O=C1c2ccccc2-n2c1nc1ccccc1c2=O	715
Oc1ccc(NCc2ccccc2OCc2ccccc2Cl)cc1	79.5
CC(C)NC(=O)C1CCN(C(=O)c2cc3sccc3n2Cc2ccc(Cl)cc2)CC1	> 1000
CN(C)CC(=O)NC1CCCc2c1cnn2-c1ccc(F)cc1F (configuration not stated)	412
Cc1cccc(-n2cnc3cc(C(=O)N4CCC(Br)CC4)ccc32)c1	> 1000
O=C(NCc1ccco1)c1nc2nc(-c3cccs3)cc(C(F)(F)F)n2n1	257
CCc1ccc(NC(=O)[C@H](Cc2c[nH]c3ccccc23)NC(=O)[C@@H]2Cc3ccccc3CN2)cc1	111
CC(=O)c1ccc(-c2csc(N3CCC(C(N)=O)CC3)n2)cc1	300
COc1cccc(CNc2ccc([S+](=O)([O-])Nc3cc4ccccc4s3)cc2)c1O	888
O=C(NC1CC1)C1CCCN1C(=O)c1cccc(-c2ccccn2)c1 (configuration not stated)	11
Brc1ccccc1-c1nc(NCc2ccc(-c3cccnc3)cc2)c2ccccc2n1	> 1000
Nc1nc(N)c2cc(Sc3ccc4ccccc4c3)ccc2n1	461
Cc1cc(C)c2nc(-c3ccccn3)cc(C(=O)Nc3ccc(S(=O)(=O)Nc4onc(C)c4C)cc3)c2c1	240
CCCCNc1oc(-c2cccc3ccccc23)nc1C#N	38
CC(=O)c1c(C)[nH]c(C(=O)N(C)C)c1C	57.4
Cc1cc(C)nc(NS(=O)(=O)c2ccc(NC(=S)NC(=O)COc3ccc(Br)cc3Cl)cc2)n1	457
Cc1ccc(S(=O)(=O)Nc2cnccc2C(=O)Nc2nc(-c3cccc(Cl)c3)cs2)cc1	38
O=C(Nc1ccc(S(=O)(=O)Nc2nccs2)cc1)c1ccc2ccccc2c1	4.69
c1ccc(-c2cc(Nc3nc(-c4ccncc4)nc4ccccc34)n[nH]2)cc1	39.4
O=C1CCCC2=C1C(c1[nH]ncc1Cl)N=C(Nc1nc3ccccc3o1)N2 (configuration not stated)	718
C#CC1(O)CCC2C3CCC4=C/C(=N/OCC(=O)NCC(=O)NC(C(=O)O)C(C)C)CC[C@]4(C)C3CC[C@@]21C (some centres not stated)	4.52
Brc1ccc(-c2csc(N3CCOCC3)n2)cc1	< 1

SMILES	Papp [×10⁻⁶ cm/s]
COc1ccc(CNC(=O)Cn2nc3c(cc2=O)CCCC3)cc1	40.6
O=C(Nc1ncc(Cc2ccc(C(F)(F)F)cc2)s1)c1ccc(-c2cccnc2)o1	984
COc1ccc(-c2noc([C@@H]3Cc4nc[nH]c4CN3C(=O)NC3CCCCC3)n2)cc1	517
O=C(COC(=O)CCC(=O)c1cccs1)NCc1ccco1	121
CNc1oc(-c2ccc(-c3ccccc3)cc2)nc1C#N	> 1000
Cc1ccc(-c2nnc(N3CCC(C(N)=O)CC3)s2)cc1	246
N#Cc1ccc(C(=O)Nc2ccc(Cl)c(-c3nc4cc(Cl)ccc4o3)c2)c(F)c1	< 1
O=C(Nc1ccc2oc(-c3ccccc3F)nc2c1)c1ccc([N+](=O)[O-])o1	38.4
CSc1ccc(-c2cnc(N3CCC(C(N)=O)CC3)s2)cc1	58.9
Cc1ccc(S(=O)(=O)Nc2ccccc2C(=O)Nc2ncc(-c3ccccc3)s2)cc1	125
Brc1ccc(-c2csc(N3CCC(c4nn[nH]n4)CC3)n2)cc1	141
COc1ccc2[nH]c(S(=O)Cc3ncc(C)c(OC)c3C)nc2n1 (configuration not stated)	183
CS(=O)(=O)c1ccc(-c2nnc(/C=C/c3nnc(-c4ccc(C#N)cc4)o3)n2-c2ccccc2Cl)nc1	> 1000
Cc1ccc(S(=O)(=O)Nc2cnccc2C(=O)Nc2ccc(-c3nn[nH]n3)cc2)cc1	1.4
O=[S+]([O-])(Nc1ccc(N2CCNCC2)cc1)c1ccc(NCc2ccc(Br)cc2O)cc1	7.93
CN1CCN(c2ccc(Nc3c4ccccc4nc4ccccc34)cc2)CC1	> 1000
CCC(Sc1nc2ccccc2c2nc(CCc3c(C)n[nH]c3C)nn12)C(=O)Nc1ccc(F)cc1 (configuration not stated)	37.9
O=C1Nc2ccccc2/C1=C\c1cc(F)c(O)c(F)c1	26.9
COc1ccc(-c2ccc3ncc(Nc4cccnc4OC)n3n2)cn1	> 1000
